Source: patent US12053442B2, “Methods and compositions for neuroprotection” (The Feinstein Institutes for Medical Research, priority 2020, dated 2024)

Experiments:
[1] = ESI-MS evaluation of active cocktail components (stability, molecular interaction); format: physicochemical; conditions: ESI-MS after ethyl acetate extraction (FIG. 6)
Experimental: Then the molecular mass of the extracted components was analyzed by electrospray ionization mass spectrometry (ESI-MS) (FIG. 6). […] Then the preparation was centrifuged at 10 000 g for 2 min at room temperature. The top layer (ethyl acetate) was then separated and transferred to a new vial. Another […] ethyl acetate was added into the bottom layer, and the extraction was repeated. The combined organic phase was dried with nitrogen gas. The residue was reconstituted in 500 μL methanol, vortexed for 10 s, and centrifuged at 13 000 g for 2 min. The final extract was transferred into a polypropylene vial. Then 30 μL of the final extract was injected and analyzed on a LTQ XL™ Linear Ion Trap Mass Spectrometer (Thermo Fisher Scientific, Waltham, MA), and the data was analyzed using Xcalibur 3.1 (Thermo Fisher Scientific, Waltham, MA).

[2] = Solubility in water during cocktail formulation; format: physicochemical; conditions: formulation NWH-1
control and CA rats = assay: Cocktail development trials to assess survival benefit (Table 9); format: in vivo, rat; conditions: reason for removal from the cocktail
Experimental: Our goal was to provide the most benefit with the least number of agents in a single concoction. […] This information can aid in selecting agents that can be appropriately and practically combined. […] Each drug, individually and in various combinations, was administered to normal rats (n=3) to determine any potential adverse effects, such as immediate death.

Compound | Stability of drug in the final cocktail formulation by mass spectra [1] | further results
C/C(=C(\CCOC(=O)C(C)C)SS/C(CCOC(=O)C(C)C)=C(/C)N(C=O)Cc1cnc(C)nc1N)N(C=O)Cc1cnc(C)nc1N [sulbutiamine, Sulbutiamine] |  | Solubility in water [2]: insoluble in
Nc1ncnc2c1ncn2[C@@H]1O[C@H](COP(=O)([O-])OP(=O)(O)OP(=O)(O)O)[C@@H](O)[C@H]1O.[Cl-].[Mg+2] [ATP-magnesium chloride, adenosine triphosphate-magnesium chloride] |  | Adverse effect seen in preliminary trials (control and CA rats): hypotensive effect
O=C1O[C@H]([C@@H](O)CO)C(O)=C1O [vitamin C, ascorbic acid] | intact and stable | 
COC1=C(OC)C(=O)C(C/C=C(\C)CC/C=C(\C)CC/C=C(\C)CC/C=C(\C)CC/C=C(\C)CC/C=C(\C)CC/C=C(\C)CC/C=C(\C)CC/C=C(\C)CCC=C(C)C)=C(C)C1=O [CoQ10, Coenzyme Q10] |  | Solubility in water [2]: insoluble in
CN(C)C(=N)N=C(N)N [metformin, Metformin] | intact and stable | 

More lines, main results first:

Stability of drug in the final cocktail formulation by mass spectra [1] | Compound | further results
intact and stable | N=C(N)NC(=O)c1cnn(-c2cccc3ncccc23)c1C1CC1 [zoniporide, Zoniporide] | 
intact and stable | CC1=NN(c2ccccc2)C(=O)C1 [edaravone, Edaravone] | 
intact and stable | CC(=O)N[C@@H](CS)C(=O)O [N-acetyl cysteine] | 
